According to PubChem BioAssay AID248 (DTP/NCI, 2004):
Where “and” joins values, the source holds several entries; their conditions need not be identical. Equal entries are not always repeated. Inconclusive results and toxic doses are left out. Cut-off read from the data, not from the text of the source: active = T/C of 150% or more; inactive = T/C below 125%.

Tested on: L1210 leukemia ip in BDF1 mice, survival T/C
Assay: NCI In Vivo Anticancer Drug Screen. Data for tumor model L1210 Leukemia (intraperitoneal) in B6D2F1 (BDF1) mice
Details: endpoint: mean survival time, higher = longer survival
Method in brief: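 Ratio derived from survival: compound-dosed mice over vehicle-dosed mice, all bearing a transplantable tumor.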

[1] = dose: 100.0 mg/kg/injection, schedule: Q01DX001 (ip), vehicle: carboxymethylcellulose (CMC)
[2] = dose: 200.0 mg/kg/injection, schedule: Q01DX001 (ip), vehicle: carboxymethylcellulose (CMC)
[3] = dose: 400.0 mg/kg/injection, schedule: Q01DX001 (ip), vehicle: carboxymethylcellulose (CMC)
[4] = dose: 100.0 mg/kg/injection, schedule: Q04DX002 (ip), vehicle: Klucel (hydroxypropylcellulose) (HPC)
[5] = dose: 100.0 mg/kg/injection, schedule: Q04DX003 (ip), vehicle: Klucel (hydroxypropylcellulose) (HPC)
[6] = dose: 200.0 mg/kg/injection, schedule: Q04DX003 (ip), vehicle: Klucel (hydroxypropylcellulose) (HPC)

Measured: T/C

OCC1C2CCC(CC2)C1CO (stereo not drawn)
inactive: dose: 12.5 mg/kg/injection, schedule: Q01DX009 (ip), vehicle: saline 102 % of control | dose: 12.5 mg/kg/injection, schedule: Q04DX003 (ip), vehicle: saline with Tween-80 97 % of control | dose: 25.0 mg/kg/injection, schedule: Q01DX009 (ip), vehicle: saline 106 % of control | dose: 25.0 mg/kg/injection, schedule: Q04DX003 (ip), vehicle: saline with Tween-80 94 % of control | dose: 50.0 mg/kg/injection, schedule: Q04DX003 (ip), vehicle: saline with Tween-80 102 % of control | dose: 100.0 mg/kg/injection, schedule: Q04DX003 (ip), vehicle: saline with Tween-80 96 % of control | dose: 200.0 mg/kg/injection, schedule: Q04DX003 (ip), vehicle: saline with Tween-80 93 % of control | dose: 400.0 mg/kg/injection, schedule: Q04DX003 (ip), vehicle: saline with Tween-80 102 % of control

CC12CCC3(CC1CCC(OC(=O)c1ccccc1)C2)OCCO3 (stereo not drawn)
inactive: dose: 100.0 mg/kg/injection, schedule: Q01DX009 (ip), vehicle: other 93 % of control | dose: 100.0 mg/kg/injection, schedule: Q04DX003 (ip), vehicle: other 108 % of control | dose: 200.0 mg/kg/injection, schedule: Q01DX009 (ip), vehicle: other 95 % of control | dose: 200.0 mg/kg/injection, schedule: Q04DX003 (ip), vehicle: other 106 % of control | dose: 400.0 mg/kg/injection, schedule: Q01DX009 (ip), vehicle: other 90 % of control | dose: 400.0 mg/kg/injection, schedule: Q04DX003 (ip), vehicle: other 95 % of control

COc1ccc(C(=O)C(C)C(C)=N)c(OCc2ccccc2)c1OC (stereo not drawn)
inactive: [1] 95 % of control | [2] 92 % of control | [3] 92 % of control

Cc1cccc(NC(=S)N(CCC#N)C2CCCCC2)c1
inactive: [1] 95 % of control | [2] 90 % of control | [3] 101 % of control

Cn1c(=O)c2c(ncn2CCO)n(C)c1=O (tested in a mixture with another compound)
inactive: dose: 100.0 mg/kg/injection, schedule: Q01DX009 (ip), vehicle: saline with Tween-80 89 % of control | dose: 100.0 mg/kg/injection, schedule: Q04DX003 (ip), vehicle: saline 103 % of control | dose: 200.0 mg/kg/injection, schedule: Q01DX009 (ip), vehicle: saline with Tween-80 94 % of control | dose: 200.0 mg/kg/injection, schedule: Q04DX003 (ip), vehicle: saline 97 % of control | dose: 400.0 mg/kg/injection, schedule: Q01DX009 (ip), vehicle: saline with Tween-80 87 % of control | dose: 400.0 mg/kg/injection, schedule: Q04DX003 (ip), vehicle: saline 108 % of control

O=C(CCl)N(c1ccccc1)c1ccccc1
inactive: dose: 25.0 mg/kg/injection, schedule: Q04DX002 (ip), vehicle: Klucel (hydroxypropylcellulose) (HPC) 101 % of control and 107 % of control | dose: 50.0 mg/kg/injection, schedule: Q04DX002 (ip), vehicle: Klucel (hydroxypropylcellulose) (HPC) 103 % of control | [4] 95 % of control and 92 % of control

O=C(O)c1ccc2c(c1)Sc1ccccc1N2
inactive: [5] 95 % of control | [6] 95 % of control

O=C(O)c1ccc(/C=N\Nc2ccccc2)cc1
inactive: dose: 50.0 mg/kg/injection, schedule: Q04DX003 (ip), vehicle: Klucel (hydroxypropylcellulose) (HPC) 95 % of control | [5] 106 % of control | [6] 100 % of control | dose: 400.0 mg/kg/injection, schedule: Q04DX003 (ip), vehicle: Klucel (hydroxypropylcellulose) (HPC) 97 % of control

CNC(=O)Oc1ccc(C=Nc2cccc(Cl)c2)cc1
inactive: [4] 98 % of control | dose: 200.0 mg/kg/injection, schedule: Q04DX002 (ip), vehicle: Klucel (hydroxypropylcellulose) (HPC) 98 % of control | dose: 400.0 mg/kg/injection, schedule: Q04DX002 (ip), vehicle: Klucel (hydroxypropylcellulose) (HPC) 98 % of control
